PMC10164568 (2023)

Columns and labels:
[1] = system: 6H3M0 (DNA, hairpin) TTTTTTTTTTTTTTTTTTTTTTTTTAAAAAAAAAAAAAAAAAAAAAAAAAAAAAAA; assay: ThT fluorescence enhancement; conditions: 10 mM Tris-HCl pH 7.4, room temperature; 1 μM DNA, 1 μM ThT
[2] = system: H-BB (DNA, hairpin) ACATAATTTAATATTTATGTTAACATAAATATTAAATTATGT; assay: UV-vis absorption shift; conditions: 10 mM Tris-HCl pH 7.4; 2.5 μM ThT in UV-vis
[3] = system: 3H3Md-TET (DNA, aptamer) CGGTGGTGCGGTGGTGAAACACCAAAACACCAAAA; assay: ThT displacement fluorescence; conditions: 10 mM Tris-HCl pH 7.4; 12.5 μM compound; ThT displaced

| binding [1] | binding [2] | binding [3] | SMILES |
| --- | --- | --- | --- |
| weak | weak |  | Cc1ccc2c(c1)sc(-c1ccc(N(C)C)cc1)[n+]2C |
|  |  | weak | C[C@H]1c2cccc(O)c2C(=O)C2=C(O)[C@]3(O)C(=O)C(C(N)=O)=C(O)[C@@H](N(C)C)[C@@H]3[C@@H](O)[C@@H]21 |
|  |  | weak | CN(C)[C@@H]1C(=O)C(C(N)=O)=C(O)[C@@]2(O)C(=O)C3=C(O)c4c(O)cccc4[C@@](C)(O)[C@H]3[C@H](O)[C@@H]12 |
